Laboratory results reported in the NIST ThermoML archive (doi:10.1021/je030127e).
Numbers after ± are expanded uncertainties.

Key:
[1] = 101.3 kPa, Liquid; for viscosity: Capillary tube (Ostwald / Ubbelohde) method
[2] = xn = mol fraction of the nth substance listed; details: 101.3 kPa, Liquid, x1 = 1; for viscosity: Capillary tube (Ostwald / Ubbelohde) method

SMILES | viscosity ([1]; 293.15 K) | speed of sound ([1]; 298.15 K) | viscosity ([1]; 298.15 K) | viscosity ([1]; 303.15 K) | viscosity ([2]; 293.15 K) | viscosity ([2]; 298.15 K) | speed of sound ([2]; 298.15 K) | viscosity ([2]; 303.15 K)
CCCCN [1-butanamine] | 0.525 ± 0.005 mPa·s | 1251.6 ± 1.1 m/s | 0.496 ± 0.005 mPa·s | 0.467 ± 0.005 mPa·s | – | – | – | –
COCCO [2-methoxyethan-1-ol] | 1.708 ± 0.013 mPa·s | 1344.5 ± 1.1 m/s | 1.544 ± 0.012 mPa·s | 1.404 ± 0.011 mPa·s | – | – | – | –
COCCO [2-methoxyethan-1-ol] + CCCCN | – | – | – | – | 1.708 ± 0.013 mPa·s | 1.544 ± 0.012 mPa·s | 1344.5 ± 1.1 m/s | 1.404 ± 0.011 mPa·s
